# Calls of active or inactive are those of the source. The rule behind the calls is not given here.
# What was measured:
# [1] = system: Klebsiella pneumoniae; test: Ratio of MIC for multidrug-resistant Klebsiella pneumoniae NCTC 13368 to MIC for multidrug-resistant Klebsiella pneumoniae NCTC 13368 in presence of efflux pump inhibitor PAbetaN; format: functional
# [2] = system: Acinetobacter baumannii; test: Antimicrobial activity against Acinetobacter baumannii ATCC 17978 by microdilution broth method; format: functional
# [3] = system: Pseudomonas aeruginosa; test: Antimicrobial activity against Pseudomonas aeruginosa PAO1 by microdilution broth method; format: functional
# [4] = system: Enterococcus faecalis; test: Antibacterial activity against vancomycin resistant Enterococcus faecalis NCTC 12201 by microdilution broth method; format: functional
# [5] = system: Staphylococcus aureus; test: Antibacterial activity against methicillin resistant Staphylococcus aureus NCTC 13277 by microdilution broth method; format: functional
# [6] = system: Klebsiella pneumoniae; test: Antimicrobial activity against multidrug-resistant Klebsiella pneumoniae M6 by microdilution broth method; format: functional
# [7] = system: Klebsiella pneumoniae; test: Antimicrobial activity against multidrug-resistant Klebsiella pneumoniae 46704 by microdilution broth method; format: functional
# [8] = system: Escherichia coli; test: Antimicrobial activity against multidrug-resistant Escherichia coli CFI_033_NDM by microdilution broth method; format: functional
# [9] = system: Burkholderia multivorans; test: Antimicrobial activity against multidrug-resistant Burkholderia multivorans C1576 by microdilution broth method; format: functional
# [10] = Antimicrobial activity against multidrug-resistant Burkholderia cepacia complex NCTC 17765 by microdilution broth method; format: functional
# [11] = system: Acinetobacter baumannii; test: Antimicrobial activity against multidrug-resistant Acinetobacter baumannii NCTC 13424 in presence of efflux pump inhibitor CCCP by microdilution broth method; format: functional
# [12] = system: Klebsiella pneumoniae; test: Antimicrobial activity against multidrug-resistant Klebsiella pneumoniae NCTC 13368 in presence of efflux pump inhibitor PAbetaN by microdilution broth method; format: functional
# [13] = system: Klebsiella pneumoniae; test: Antimicrobial activity against multidrug-resistant Klebsiella pneumoniae 16 in presence of efflux pump inhibitor PAbetaN by microdilution broth method; format: functional
# [14] = system: Klebsiella pneumoniae; test: Antimicrobial activity against multidrug-resistant Klebsiella pneumoniae NCTC 13438 in presence of efflux pump inhibitor PAbetaN by microdilution broth method; format: functional
# [15] = system: Acinetobacter baumannii; test: Antimicrobial activity against multidrug-resistant Acinetobacter baumannii NCTC 13424 in presence of efflux pump inhibitor PAbetaN by microdilution broth method; format: functional
# [16] = system: Pseudomonas aeruginosa; test: Antimicrobial activity against Pseudomonas aeruginosa PAO1 in presence of efflux pump inhibitor PAbetaN by microdilution broth method; format: functional
# [17] = system: Pseudomonas aeruginosa; test: Antimicrobial activity against Pseudomonas aeruginosa PAO1 in presence of membrane permeabilizer PMBN by microdilution broth method; format: functional
# [18] = Ratio of MIC for Pseudomonas aeruginosa PAO1 to MIC for Pseudomonas aeruginosa PW1783 harboring MexAB-OprM mutant; format: functional
# [19] = system: Pseudomonas aeruginosa; test: Ratio of MIC for Pseudomonas aeruginosa PAO1 to MIC for Pseudomonas aeruginosa PAO1 in presence of membrane permeabilizer PMBN; format: functional
# [20] = system: DNA; test: Stabilization of 5'-FAM-TAT-ATA-TAG-ATA-TTT-TTT-TAT-CTA-TAT-ATA-3'-TAMRA DNA (unknown origin) assessed as reduction in change in melting temperature at 1:1 to 5:1 ligand to DNA ratio measured after 3 hrs by FRET-based assay relative to control; format: ADME, nucleic-acid assay
# [21] = system: DNA; test: Stabilization of 5'-FAM-TAT-AGA-TAT-AGA-TAT-TTT-ATA-TCT-ATA-TCT-ATA-3'-TAMRA DNA (unknown origin) assessed as reduction in change in melting temperature at 1:1 to 5:1 ligand to DNA ratio measured after 3 hrs by FRET-based assay relative to control; format: ADME, nucleic-acid assay
# [22] = Cytotoxicity against human WI38 cells assessed as cell viability at 20 uM measured after 24 hrs by MTT assay relative to control; format: cell-based, WI-38; conditions: read-out: Activity
# [23] = Selectivity ratio of cytotoxicity against human WI38 cells to MIC for Acinetobacter baumannii ATCC 17978; format: toxicity, cell-based
# [24] = Selectivity ratio of cytotoxicity against human WI38 cells to MIC for Pseudomonas aeruginosa PAO1; format: toxicity, cell-based
# [25] = Selectivity ratio of cytotoxicity against human WI38 cells to MIC for multidrug-resistant Pseudomonas aeruginosa NCTC 13437; format: toxicity, cell-based
# [26] = Selectivity ratio of cytotoxicity against human WI38 cells to MIC for vancomycin resistant Enterococcus faecium NCTC 12204; format: toxicity, cell-based
# [27] = Selectivity ratio of cytotoxicity against human WI38 cells to MIC for vancomycin resistant Enterococcus faecalis NCTC 12201; format: toxicity, cell-based
# [28] = molecular target: DNA gyrase (Staphylococcus aureus, UniProt P0A0K8+P20831); test: Inhibition of Staphylococcus aureus DNA gyrase using relaxed pNO1 as substrate by gel based fluorescence assay; format: protein-complex assay
# [29] = system: Escherichia coli; test: Antimicrobial activity against multidrug-resistant Escherichia coli NCTC 12923 assessed as mutation frequency at 4 times MIC measured after 48 hrs; format: functional
# [30] = molecular target: T1, DNA repair protein RecN (Escherichia coli) (UniProt P05824); test: Induction of Escherichia coli K12 MG1655 recN promotor measured at 30 mins interval for 20 hrs by fluorescence assay relative to control; conditions: Escherichia coli str. K-12 substr. MG1655
# T1 sequence (whole entry): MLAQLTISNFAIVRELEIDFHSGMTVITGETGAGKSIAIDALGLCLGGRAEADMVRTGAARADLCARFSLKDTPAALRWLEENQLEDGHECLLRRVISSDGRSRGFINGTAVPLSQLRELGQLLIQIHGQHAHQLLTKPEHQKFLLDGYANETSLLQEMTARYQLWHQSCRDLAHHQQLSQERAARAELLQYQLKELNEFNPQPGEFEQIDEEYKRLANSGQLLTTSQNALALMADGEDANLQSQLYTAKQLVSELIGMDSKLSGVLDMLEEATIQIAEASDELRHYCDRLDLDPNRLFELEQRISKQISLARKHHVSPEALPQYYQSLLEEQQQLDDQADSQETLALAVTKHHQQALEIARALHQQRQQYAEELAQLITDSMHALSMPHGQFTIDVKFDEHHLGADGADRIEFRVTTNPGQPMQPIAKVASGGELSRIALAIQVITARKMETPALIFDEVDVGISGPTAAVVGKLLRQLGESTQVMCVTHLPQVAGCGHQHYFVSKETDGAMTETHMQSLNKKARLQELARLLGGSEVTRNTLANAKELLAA
# [31] = system: Klebsiella pneumoniae; test: Antimicrobial activity against Klebsiella pneumoniae M137K by microdilution broth method; format: functional
# [32] = system: Klebsiella pneumoniae; test: Antimicrobial activity against Klebsiella pneumoniae tnkp1_lr150124p14q189 by microdilution broth method; format: functional
# [33] = system: Acinetobacter baumannii; test: Bactericidal activity against Acinetobacter baumannii NCTC 13424 assessed as reduction in viable bacterial count at 4 times MIC measured up to 24 hrs by Miles-Misra dilution method based time-kill assay; format: functional, organism-based
# [34] = system: Klebsiella pneumoniae; test: Antibacterial activity against multidrug-resistant Klebsiella pneumoniae NCTC 13368-7-R1 measured after 10 passages in presence of efflux pump inhibitor CCCP by microdilution broth method; format: functional
# [35] = system: Acinetobacter baumannii; test: Antimicrobial activity against multidrug-resistant Acinetobacter baumannii AYE in presence of efflux pump inhibitor CCCP by microdilution broth method; format: functional
# [36] = system: Klebsiella pneumoniae; test: Antimicrobial activity against multidrug-resistant Klebsiella pneumoniae 16 in presence of membrane permeabilizer PMBN by microdilution broth method; format: functional
# [37] = Solubility of the compound at 32 mg/L; format: physicochemical
# Chain of DNA gyrase (P0A0K8 whole entry): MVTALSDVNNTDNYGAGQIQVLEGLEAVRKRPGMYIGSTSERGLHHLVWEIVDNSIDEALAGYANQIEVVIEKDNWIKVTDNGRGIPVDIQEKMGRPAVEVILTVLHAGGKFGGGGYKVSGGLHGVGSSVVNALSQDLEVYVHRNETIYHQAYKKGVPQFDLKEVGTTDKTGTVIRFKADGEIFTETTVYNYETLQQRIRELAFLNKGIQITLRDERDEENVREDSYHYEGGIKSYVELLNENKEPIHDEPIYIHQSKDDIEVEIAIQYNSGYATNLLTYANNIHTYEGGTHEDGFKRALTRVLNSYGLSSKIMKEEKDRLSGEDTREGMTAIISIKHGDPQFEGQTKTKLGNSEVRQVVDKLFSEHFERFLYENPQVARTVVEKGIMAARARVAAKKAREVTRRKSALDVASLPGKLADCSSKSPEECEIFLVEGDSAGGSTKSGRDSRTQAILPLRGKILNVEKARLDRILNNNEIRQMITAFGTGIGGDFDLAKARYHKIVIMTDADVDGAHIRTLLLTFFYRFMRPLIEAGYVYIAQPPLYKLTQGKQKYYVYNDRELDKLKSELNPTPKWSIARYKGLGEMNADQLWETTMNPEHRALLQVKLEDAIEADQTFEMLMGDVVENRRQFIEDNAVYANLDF
# Chain of DNA gyrase (P20831 whole entry): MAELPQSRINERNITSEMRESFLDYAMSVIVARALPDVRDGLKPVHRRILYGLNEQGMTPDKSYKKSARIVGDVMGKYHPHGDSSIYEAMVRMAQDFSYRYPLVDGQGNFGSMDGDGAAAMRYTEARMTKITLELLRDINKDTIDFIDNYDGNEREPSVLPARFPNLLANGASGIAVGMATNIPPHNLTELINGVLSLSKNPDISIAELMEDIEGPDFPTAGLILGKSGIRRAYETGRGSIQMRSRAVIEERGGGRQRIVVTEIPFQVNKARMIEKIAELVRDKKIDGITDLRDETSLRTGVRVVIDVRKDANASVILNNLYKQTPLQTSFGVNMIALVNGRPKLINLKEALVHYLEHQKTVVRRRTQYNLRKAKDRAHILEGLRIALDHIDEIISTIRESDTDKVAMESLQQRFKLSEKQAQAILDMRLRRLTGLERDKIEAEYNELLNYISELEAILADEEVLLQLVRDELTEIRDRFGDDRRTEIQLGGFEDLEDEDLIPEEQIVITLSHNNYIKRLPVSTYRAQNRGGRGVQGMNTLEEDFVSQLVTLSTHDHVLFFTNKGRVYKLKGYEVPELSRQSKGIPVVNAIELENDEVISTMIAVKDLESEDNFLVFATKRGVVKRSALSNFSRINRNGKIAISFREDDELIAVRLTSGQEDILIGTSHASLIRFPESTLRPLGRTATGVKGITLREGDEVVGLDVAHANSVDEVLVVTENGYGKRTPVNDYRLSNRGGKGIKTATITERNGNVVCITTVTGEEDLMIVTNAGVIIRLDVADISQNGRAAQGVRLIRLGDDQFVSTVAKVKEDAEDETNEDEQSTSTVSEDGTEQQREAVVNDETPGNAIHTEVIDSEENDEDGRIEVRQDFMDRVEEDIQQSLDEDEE
SMILES,Ratio [1],MIC [2] [µg/mL],MIC [3] [µg/mL],MIC [4] [µg/mL],MIC [5] [µg/mL],MIC [6] [µg/mL],MIC [7] [µg/mL],MIC [8] [µg/mL],MIC [9] [µg/mL],MIC [10] [µg/mL],MIC [11] [µg/mL],MIC [12] [µg/mL],MIC [13] [µg/mL],MIC [14] [µg/mL],MIC [15] [µg/mL],MIC [16] [µg/mL],MIC [17] [µg/mL],Ratio [18],Ratio [19],fold change (FC) [20],further results
COc1cc2c(cc1OCCCC(=O)Nc1cc(C(=O)Nc3ccc4sc(C(=O)N(C)C)cc4c3)n(C)c1)N=C[C@@H]1CCCN1C2=O,4,0.5 to 1,> 32,0.03,0.06,1,1,0.5,1,0.125,0.25,0.5,2,0.25,0.25,2,2 to 16,> 8,>=4 - 16,3 to 4,"fold change (FC) [21]: 3 to 4; viability at 24 h, 20 µM [22]: > 85%; selectivity ratio [23]: 10; selectivity ratio [24]: 10; selectivity ratio [25]: 10; selectivity ratio [26]: 100; selectivity ratio [27]: 100; IC50 ([28]; read-out: IC50 (converted)): 4.81 µM; Activity [29]: <4.3 ×10⁻⁸ No_unit; fold change (FC) [30]: 6 to 11; MIC [31]: 16 to 32 µg/mL; MIC [32]: 16 to 32 µg/mL"
COc1cc2c(cc1OCCCC(=O)Nc1cc(C(=O)Nc3ccc4oc(C(=O)N5CCSCC5)cc4c3)n(C)c1)N=C[C@@H]1CCCN1C2=O,4,2,32 to 128,0.25,2,1,4,1,16,1,1,8,2,4,2,32,0.25 to 8,> 8,>=8 - 64,3 to 4,"Activity [33]: Active; MIC [34]: 128 µg/mL; MIC [35]: 4 µg/mL; MIC [36]: 0.5 µg/mL; fold change (FC) [21]: 3 to 4; viability at 24 h, 20 µM [22]: > 85%; selectivity ratio [23]: 10; selectivity ratio [24]: 10; selectivity ratio [25]: 10; selectivity ratio [26]: 100; selectivity ratio [27]: 100; IC50 [28]: Nd(Insoluble); solubility [37]: Insoluble; fold change (FC) [30]: 6 to 11; MIC [31]: 32 µg/mL; MIC [32]: > 128 µg/mL"
